Measured values: PubChem BioAssay (NCI)
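Tested at 5 concentrations; 48 h exposure; 96-well plates; endpoints linearly interpolated, else capped at highest concentration. The concentration for 50% growth inhibition is given as GI50. TGI is the concentration that stops growth completely.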

Assays:
Assay in all cases: inhibition of tumour cell growth, NCI panel, 48 h
786-0 renal = tested on: 786-0 renal
A498 renal = tested on: A498 renal
A549 NSCLC = tested on: A549 NSCLC
ACHN renal = tested on: ACHN renal
BT-549 breast = tested on: BT-549 breast
CAKI-1 renal = tested on: CAKI-1 renal
CCRF-CEM leukemia = tested on: CCRF-CEM leukemia
COLO 205 colon = tested on: COLO 205 colon
DU-145 prostate = tested on: DU-145 prostate
EKVX NSCLC = tested on: EKVX NSCLC
HCC-2998 colon = tested on: HCC-2998 colon
HCT-116 colon = tested on: HCT-116 colon
HCT-15 colon = tested on: HCT-15 colon
HL-60(TB) leukemia = tested on: HL-60(TB) leukemia
HOP-62 NSCLC = tested on: HOP-62 NSCLC
HOP-92 NSCLC = tested on: HOP-92 NSCLC
HS 578T breast = tested on: HS 578T breast
HT29 colon = tested on: HT29 colon
IGROV1 ovarian = tested on: IGROV1 ovarian
K-562 leukemia = tested on: K-562 leukemia
KM12 colon = tested on: KM12 colon
LOX IMVI melanoma = tested on: LOX IMVI melanoma
M14 melanoma = tested on: M14 melanoma
MALME-3M melanoma = tested on: MALME-3M melanoma
MCF7 breast = tested on: MCF7 breast
MDA-MB-231 breast = tested on: MDA-MB-231 breast
MDA-MB-435 = tested on: MDA-MB-435
MOLT-4 leukemia = tested on: MOLT-4 leukemia
NCI-H226 lung = tested on: NCI-H226 lung
NCI-H23 lung = tested on: NCI-H23 lung
NCI-H460 lung = tested on: NCI-H460 lung
NCI-H522 lung = tested on: NCI-H522 lung
NCI/ADR-RES ovarian = tested on: NCI/ADR-RES ovarian
OVCAR-3 ovarian = tested on: OVCAR-3 ovarian
OVCAR-5 ovarian = tested on: OVCAR-5 ovarian
OVCAR-8 ovarian = tested on: OVCAR-8 ovarian
PC-3 prostate = tested on: PC-3 prostate
RPMI-8226 leukemia = tested on: RPMI-8226 leukemia
RXF 393 renal = tested on: RXF 393 renal
SF-268 CNS = tested on: SF-268 CNS
SF-295 CNS = tested on: SF-295 CNS
SF-539 CNS = tested on: SF-539 CNS
SK-MEL-2 melanoma = tested on: SK-MEL-2 melanoma
SK-MEL-28 melanoma = tested on: SK-MEL-28 melanoma
SK-MEL-5 melanoma = tested on: SK-MEL-5 melanoma
SK-OV-3 ovarian = tested on: SK-OV-3 ovarian
SN12C renal = tested on: SN12C renal
SNB-19 CNS = tested on: SNB-19 CNS
SW-620 colon = tested on: SW-620 colon
TK-10 renal = tested on: TK-10 renal
U251 CNS = tested on: U251 CNS
UACC-257 melanoma = tested on: UACC-257 melanoma
UACC-62 melanoma = tested on: UACC-62 melanoma
UO-31 renal = tested on: UO-31 renal

CCCOc1cc2ccccc2cc1C(=O)Nc1nc(NC)c2c(ccc3nccc32)[nH]1
GI50 (786-0 renal): 613 nM
TGI (786-0 renal): 2070 nM
GI50 (A498 renal): 359 nM
TGI (A498 renal): 1750 nM
GI50 (A549 NSCLC): 978 nM
TGI (A549 NSCLC): 2390 nM
GI50 (ACHN renal): 520 nM
TGI (ACHN renal): 1910 nM
GI50 (BT-549 breast): 1450 nM
TGI (BT-549 breast): 3020 nM
GI50 (CAKI-1 renal): 1760 nM
TGI (CAKI-1 renal): 3820 nM
GI50 (CCRF-CEM leukemia): 311 nM
TGI (CCRF-CEM leukemia): 1040 nM
GI50 (COLO 205 colon): 479 nM
TGI (COLO 205 colon): 1810 nM
GI50 (DU-145 prostate): 345 nM
TGI (DU-145 prostate): 1230 nM
GI50 (EKVX NSCLC): 611 nM
TGI (EKVX NSCLC): 2040 nM
GI50 (HCC-2998 colon): 1110 nM
TGI (HCC-2998 colon): 2410 nM
GI50 (HCT-116 colon): 350 nM
TGI (HCT-116 colon): 1240 nM
GI50 (HCT-15 colon): 240 nM
TGI (HCT-15 colon): 1030 nM
GI50 (HL-60(TB) leukemia): 230 nM
TGI (HL-60(TB) leukemia): 611 nM
GI50 (HOP-62 NSCLC): 779 nM
TGI (HOP-62 NSCLC): 2280 nM
GI50 (HOP-92 NSCLC): 1150 nM
TGI (HOP-92 NSCLC): 2510 nM
GI50 (HS 578T breast): 1420 nM
TGI (HS 578T breast): 3850 nM
GI50 (HT29 colon): 208 nM
TGI (HT29 colon): 446 nM
GI50 (IGROV1 ovarian): 1170 nM
TGI (IGROV1 ovarian): 2710 nM
GI50 (K-562 leukemia): 88.3 nM
TGI (K-562 leukemia): 912 nM
GI50 (KM12 colon): 295 nM
TGI (KM12 colon): 1460 nM
GI50 (LOX IMVI melanoma): 420 nM
TGI (LOX IMVI melanoma): 1760 nM
GI50 (M14 melanoma): 444 nM
TGI (M14 melanoma): 1980 nM
GI50 (MALME-3M melanoma): 1150 nM
TGI (MALME-3M melanoma): 2540 nM
GI50 (MCF7 breast): 263 nM
TGI (MCF7 breast): 1310 nM
GI50 (MDA-MB-231 breast): 1340 nM
TGI (MDA-MB-231 breast): 2870 nM
GI50 (MDA-MB-435): 40.1 nM
TGI (MDA-MB-435): 197 nM
GI50 (MOLT-4 leukemia): 496 nM
TGI (MOLT-4 leukemia): 2320 nM
GI50 (NCI-H226 lung): 1650 nM
TGI (NCI-H226 lung): 3800 nM
GI50 (NCI-H23 lung): 1100 nM
TGI (NCI-H23 lung): 2530 nM
GI50 (NCI-H460 lung): 348 nM
TGI (NCI-H460 lung): 1130 nM
GI50 (NCI-H522 lung): 44.9 nM
TGI (NCI-H522 lung): 219 nM
GI50 (NCI/ADR-RES ovarian): 550 nM
TGI (NCI/ADR-RES ovarian): 2480 nM
GI50 (OVCAR-3 ovarian): 248 nM
TGI (OVCAR-3 ovarian): 1130 nM
GI50 (OVCAR-5 ovarian): 1400 nM
TGI (OVCAR-5 ovarian): 3000 nM
GI50 (OVCAR-8 ovarian): 890 nM
TGI (OVCAR-8 ovarian): 2300 nM
GI50 (PC-3 prostate): 494 nM
TGI (PC-3 prostate): 2000 nM
GI50 (RPMI-8226 leukemia): 402 nM
TGI (RPMI-8226 leukemia): 1830 nM
GI50 (RXF 393 renal): 404 nM
TGI (RXF 393 renal): 1680 nM
GI50 (SF-268 CNS): 559 nM
TGI (SF-268 CNS): 2050 nM
GI50 (SF-295 CNS): 86.6 nM
TGI (SF-295 CNS): 1200 nM
GI50 (SF-539 CNS): 623 nM
TGI (SF-539 CNS): 2060 nM
GI50 (SK-MEL-2 melanoma): 325 nM
TGI (SK-MEL-2 melanoma): 1360 nM
GI50 (SK-MEL-28 melanoma): 1140 nM
TGI (SK-MEL-28 melanoma): 2430 nM
GI50 (SK-MEL-5 melanoma): 994 nM
TGI (SK-MEL-5 melanoma): 2200 nM
GI50 (SK-OV-3 ovarian): 473 nM
TGI (SK-OV-3 ovarian): 1780 nM
GI50 (SN12C renal): 1720 nM
TGI (SN12C renal): 3480 nM
GI50 (SNB-19 CNS): 701 nM
TGI (SNB-19 CNS): 2230 nM
GI50 (SW-620 colon): 383 nM
TGI (SW-620 colon): 1740 nM
GI50 (TK-10 renal): 1360 nM
TGI (TK-10 renal): 2680 nM
GI50 (U251 CNS): 521 nM
TGI (U251 CNS): 1740 nM
GI50 (UACC-257 melanoma): 1210 nM
TGI (UACC-257 melanoma): 2560 nM
GI50 (UACC-62 melanoma): 556 nM
TGI (UACC-62 melanoma): 2120 nM
GI50 (UO-31 renal): 1170 nM
TGI (UO-31 renal): 2590 nM
